Experimental data taken from PMC11822212, “High-throughput screening identifies Aurora kinase B as a critical therapeutic target for Merkel cell carcinoma” (Nature Communications, 2025).
Where a name gives a salt, the structure may show the parent alone. Read-outs that look alike come from different tables or passages of the source.

Columns and labels:
MCC13 cells (VN-MCC) = assay: qHTS cell viability (CellTiter-Glo, 72 h; primary and follow-up small molecule screen); type: cell-based, human
MCC26 cells (VN-MCC) = assay: as above; type: cell-based, human
UISO cells (VN-MCC) = assay: as above; type: cell-based, human
WAGA cells (VP-MCC) = assay: as above; type: cell-based, human
MKL-1 cells (VP-MCC) = assay: as above; type: cell-based, human
MKL-2 cells (VP-MCC) = assay: as above; type: cell-based, human
HACAT cells = assay: qHTS cell viability (CellTiter-Glo, 72 h; primary screen), control cell line; type: cell-based, human
HEK293T cells = assay: as above; type: cell-based, human
NIH-3T3 cells = assay: as above; type: cell-based, mouse
CRL-7250 cells = assay: as above; type: cell-based
[1] = test system: MCC cell lines (WAGA, MKL-1, MKL-2, MCC13, MCC26, UISO); assay: qHTS cell viability, all six MCC cell lines as a group (mean AUC, MCC.avg); type: cell-based, human
[2] = test system: VP-MCC cell lines (WAGA, MKL-1, MKL-2); assay: qHTS cell viability, VP-MCC cell lines as a group (mean AUC, VP.MCC.avg); type: cell-based, human
[3] = test system: VN-MCC cell lines (MCC13, MCC26, UISO); assay: qHTS cell viability, VN-MCC cell lines as a group (mean AUC, VN.MCC.avg); type: cell-based, human
[4] = test system: control cell lines (HACAT, HEK293T, CRL-7250, NIH-3T3); assay: qHTS cell viability, control cell lines as a group (mean AUC, Control.avg); type: cell-based
[5] = test system: six MCC cell lines and four control cell lines; assay: qHTS cell viability, all 10 cell lines screened; type: cell-based
[6] = NPC library, qHTS dose-response AUC, MCC13
[7] = NPC library, qHTS dose-response AUC, MCC26
[8] = NPC library, qHTS dose-response AUC, UISO
[9] = NPC library, qHTS dose-response AUC, WAGA
[10] = NPC library, qHTS dose-response AUC, MKL1
[11] = NPC library, qHTS dose-response AUC, MKL2
[12] = NPC library, qHTS dose-response AUC, HACAT control
[13] = NPC library, qHTS dose-response AUC, HEK293T control
[14] = NPC library, qHTS dose-response AUC, NIH3T3 control
[15] = NPC library, qHTS dose-response AUC, CRL7250 control
[16] = NPC library, mean AUC of six MCC cell lines
[17] = NPC library, mean AUC of VP-MCC cell lines
[18] = NPC library, therapeutic window: Control avg AUC minus VP-MCC avg AUC
[19] = NPC library, mean AUC of VN-MCC cell lines
[20] = NPC library, therapeutic window: Control avg AUC minus VN-MCC avg AUC
[21] = NPC library, mean AUC of control cell lines
[22] = NPC library, therapeutic window: Control avg AUC minus MCC avg AUC

Row | SMILES | MCC13_AUC (MCC13 cells (VN-MCC)) | MCC26_AUC (MCC26 cells (VN-MCC)) | UISO_AUC (UISO cells (VN-MCC)) | WAGA_AUC (WAGA cells (VP-MCC)) | MKL1_AUC (MKL-1 cells (VP-MCC)) | MKL2_AUC (MKL-2 cells (VP-MCC)) | HACAT_AUC (HACAT cells) | HEK293T_AUC (HEK293T cells) | NIH3T3_AUC (NIH-3T3 cells) | CRL7250_AUC (CRL-7250 cells) | MCC_Avg_AUC [1] | Control-VP-MCC [2] | VP-MCC_Avg_AUC [2] | Control-VN-MCC [3] | VN-MCC_Avg_AUC [3] | Control_Avg_AUC [4] | Control-MCC [5] | MCC13_AUC (MCC13 cells (VN-MCC); [6]) | MCC26_AUC (MCC26 cells (VN-MCC); [7]) | UISO_AUC (UISO cells (VN-MCC); [8]) | also measured
1 | CCCN(CCC)CCc1c[nH]c2ccccc12.Cl [N,N-Dipropyltryptamine hydrochloride] | 455.096 | 415.779 | 424.523 | 434.773 | 391.099 | 402.2 | 490.19 | 447.306 | 481.316 | 497.853 | 420.579 | 69.8085 | 409.358 | 47.3665 | 431.8 | 479.166 | 58.5875 | – | – | – | –
2 | CNCc1ccccc1.Cl [N-Methylbenzylamine hydrochloride] | – | – | – | – | – | – | – | – | – | – | – | – | – | – | – | – | – | 438.819 | 480.435 | 548.944 | WAGA_AUC (WAGA cells (VP-MCC); [9]): 372.649; MKL1_AUC (MKL-1 cells (VP-MCC); [10]): 390.814; MKL2_AUC (MKL-2 cells (VP-MCC); [11]): 343.012; HACAT_AUC (HACAT cells; [12]): 476.463; HEK293T_AUC (HEK293T cells; [13]): 408.972; NIH3T3_AUC (NIH-3T3 cells; [14]): 497.435; CRL7250_AUC (CRL-7250 cells; [15]): 502.537; MCC_Avg_AUC [1, 16]: 429.112; VP-MCC_Avg_AUC [2, 17]: 368.825; Control-VP-MCC [2, 18]: 102.527; VN-MCC_Avg_AUC [3, 19]: 489.399; Control-VN-MCC [3, 20]: -18.0472; Control_Avg_AUC [4, 21]: 471.352; Control-MCC [5, 22]: 42.2399
3 | Cl.Oc1ccc2c3c1O[C@H]1[C@@H](O)C=C[C@H]4[C@@H](C2)NCC[C@@]341 [N-Normorphine hydrochloride] | 466.371 | 408.273 | 440.259 | 412.634 | 418.832 | 420.551 | 477.868 | 480.826 | 490.376 | 485.195 | 427.82 | 66.2273 | 417.339 | 45.2651 | 438.301 | 483.566 | 55.7462 | – | – | – | –
4 | CNS(=O)(=O)CCc1ccc2[nH]cc(C3CCN(C)CC3)c2c1 [Naratriptan hydrochloride] | – | – | – | – | – | – | – | – | – | – | – | – | – | – | – | – | – | 448.681 | 402.936 | 436.144 | WAGA_AUC (WAGA cells (VP-MCC); [9]): 412.133; MKL1_AUC (MKL-1 cells (VP-MCC); [10]): 385.118; MKL2_AUC (MKL-2 cells (VP-MCC); [11]): 428.785; HACAT_AUC (HACAT cells; [12]): 491.601; HEK293T_AUC (HEK293T cells; [13]): 455.258; NIH3T3_AUC (NIH-3T3 cells; [14]): 449.036; CRL7250_AUC (CRL-7250 cells; [15]): 454.782; MCC_Avg_AUC [1, 16]: 418.966; VP-MCC_Avg_AUC [2, 17]: 408.679; Control-VP-MCC [2, 18]: 53.9902; VN-MCC_Avg_AUC [3, 19]: 429.254; Control-VN-MCC [3, 20]: 33.4153; Control_Avg_AUC [4, 21]: 462.669; Control-MCC [5, 22]: 43.7027
5 | Cc1ccc([N+](=O)[O-])[c]2c1[O][Hg]2 [Nitromersol] | 325.021 | 361.414 | 294.101 | 281.054 | 252.702 | 228.637 | 397.686 | 310.441 | 388.302 | 286.086 | 290.488 | 91.4976 | 254.131 | 18.7838 | 326.845 | 345.629 | 55.1407 | – | – | – | –
